Results taken from ChEMBL document CHEMBL3351876 (Eur J Med Chem, 2014).

Assays:
Plasmodium falciparum = assay: Antimalarial activity against chloroquine-resistant ring stage Plasmodium falciparum W2 assessed as parasitemia after 48 hrs by flow cytometry; assay type: functional, organism-based; details: W2, 48 h
[1] = Selectivity index, ratio of CC50 for human HeLa cells to IC50 for chloroquine-resistant ring stage Plasmodium falciparum W2; assay type: functional
Heme = assay: Binding affinity to heme assessed as inhibition of beta-haemozoin formation by UV-vis spectra analysis
HeLa = assay: Cytotoxicity against human HeLa cells after 24 hrs by trypan blue exclusion assay; assay type: cell-based

| SMILES | IC50 (Plasmodium falciparum) [µM] | Ratio IC50 [1] | IC50 (Heme) [µM] | IC50 (HeLa) [µM] |
| --- | --- | --- | --- | --- |
| O=C1[C@H](NC(=S)Nc2ccnc3cc(Cl)ccc23)[C@H](/C=C/c2ccccc2)N1c1ccc(Br)cc1 | 5.72 | – | – | – |
| O=C1[C@H](NC(=S)Nc2ccnc3cc(Cl)ccc23)[C@H](/C=C/c2ccccc2)N1c1ccc(F)cc1 | > 10 | – | – | – |
| O=C1/C(=C/C=C/c2ccccc2)NC(=S)N1CCCCNc1ccnc2cc(Cl)ccc12 | 0.0572 | >1747 | 28.4 | > 100 |
| O=C1[C@H](NC(=S)Nc2ccnc3cc(Cl)ccc23)[C@H](/C=C/c2ccccc2)N1c1ccc(Cl)cc1 | 8.75 | – | – | – |
| Cc1ccc(N2C(=O)[C@H](NC(=S)Nc3ccnc4cc(Cl)ccc34)[C@@H]2/C=C/c2ccccc2)cc1 | > 10 | – | – | – |
| O=C1[C@H](NC(=S)Nc2ccnc3cc(Cl)ccc23)[C@H](/C=C/c2ccccc2)N1c1ccccc1 | > 10 | – | – | – |
| O=C1/C(=C/C=C/c2ccccc2)NC(=S)N1CCCCCCNc1ccnc2cc(Cl)ccc12 | 0.387 | – | – | – |
| Cc1ccc(N2C(=O)[C@@H](NC(=S)NC3CCCCC3)[C@H]2/C=C/c2ccccc2)cc1 | > 10 | – | – | – |
| Cc1ccc(N2C(=O)[C@@H](NC(=S)NCC(C)C)[C@H]2/C=C/c2ccccc2)cc1 | > 10 | – | – | – |
| CC(C)CN1C(=O)/C(=C/C=C/c2ccccc2)NC1=S | > 10 | – | – | – |
| O=C1/C(=C/C=C/c2ccccc2)NC(=S)N1CCCNc1ccnc2cc(Cl)ccc12 | 0.0425 | 2139 | 19.9 | 91 |
| Cc1ccc(N2C(=O)[C@@H](NC(=S)Nc3ccc(F)cc3)[C@H]2/C=C/c2ccccc2)cc1 | > 10 | – | – | – |
| O=C1/C(=C/C=C/c2ccccc2)NC(=S)N1CCNc1ccnc2cc(Cl)ccc12 | 0.0398 | 1807 | 13.9 | 72 |
| Cc1ccc(NC(=S)N[C@@H]2C(=O)N(c3ccc(C)cc3)[C@@H]2/C=C/c2ccccc2)cc1 | > 10 | – | – | – |
| O=C1/C(=C/C=C/c2ccccc2)NC(=S)N1C1CCCCC1 | > 10 | – | – | – |
| Cc1ccc(N2C(=O)/C(=C/C=C/c3ccccc3)NC2=S)cc1 | > 10 | – | – | – |
| O=C1[C@H](NC(=S)Nc2ccnc3cc(Cl)ccc23)[C@H](/C=C/c2ccccc2)N1C1CCCCC1 | 6.13 | – | – | – |
| NCCN1C(=O)/C(=C/C=C/c2ccccc2)NC1=S | > 10 | – | – | – |
| CCCCN1C(=O)/C(=C/C=C/c2ccccc2)NC1=S | > 10 | – | – | – |
| O=C1/C(=C/C=C/c2ccccc2)NC(=S)N1c1ccc(F)cc1 | > 10 | – | – | – |
| CCCCNC(=S)N[C@@H]1C(=O)N(c2ccc(C)cc2)[C@@H]1/C=C/c1ccccc1 | > 10 | – | – | – |
